Read-outs that look alike come from different tables or passages of the source.
Assays:
Format in all cases: biochemical
[1] = biological target: Recombinant human Syk (amino acids 342-635), GST-Syk kinase fusion protein (Homo sapiens (Human), UniProt P43405); test: Syk kinase test (Kinase Glo luminescence)
Protocol: (§1) The output file of the reader is a csv file that contains the well number and measured relative light units (RLU). For data evaluation and calculation, the measurement of the negative control was set as 100% ctrl and the measurement of the positive control was set as 0% ctrl. Based on this values the % value for the measurement of each substance concentration was calculated using an Assay Explorer software (Accelrys). Normally, the % ctrl values calculated are between 0% and 100% values but may also occur outside these limits in individual cases based on variability or compound characteristics. The IC50 values were calculated from the % ctrl values using Assay Explorer software. Calculation:[y=(a−d)/(1+(x/c)^b)+d] a=low value, d=high value; x=conc M; c=IC50 M; b=hill; y=% ctrl.

[2] = biological target: Recombinant human Aurora B (amino acids 1-344) (Homo sapiens (Human), UniProt Q96GD4); test: Aurora B kinase test (ADP Glo luminescence)
Protocol: The activity of the Aurora B kinase protein was determined using the ADP Glo® Luminescence Kinase test (Promega; V9103X).
Serial Dilution is done in 1:10 steps in 100% DMSO.
Then 20 μl Kinase detection mix (Detection Buffer #V913B Promega; Kinase Detection Substrate #V914B Promega) were added and incubated for 40 minutes at room temperature.
as §1, with “measured RLU.” for “measured relative light units (RLU).”, “as 0%” for “as 100%”, “as 100%” for “as 0%”, “software. Calculation: [y=(a−d)/(1+(x/c)^b)+d],” for “software. Calculation:[y=(a−d)/(1+(x/c)^b)+d]”

FLT3 = FLT3 (Homo sapiens (Human), UniProt P36888); test: FLT3 kinase test (Z'-LYTE)
Protocol: The activity of FLT3 is measured using the Z′-LYTETM assay technology from Invitrogen (#PV3191)
The reaction is started by addition of 2.5 μl of the 4×ATP solution.
Positive controls are reaction mixtures containing no test compound; negative controls (blanks) are reaction mixtures containing no kinase. As a further control, the phosphopeptide solution is added to wells without kinase (=100% phosphorylation control).
The reaction is performed for 1 h at room temperature before 5 μl of the development solution is added. After a further incubation for 1 h at room temperature 5 μl of the stop reagent is added.
The output text file is evaluated in an “MS-Excel—VB-Makro” and “GraphPadPrism” (Version 5) (GraphPad Software Inc.) is used to calculate the results. Data for the inhibition of FLT3 are reported in M. data for the inhibition of the protease are reported in % CTL.

[3] = Table 1, read-out: SYK-inhibition IC50-value
[4] = Table 1, read-out: AURB-inhibition IC50-value
[5] = Table 1, read-out: FLT3-inhibition IC50-value

FLT3, sequence (P36888 27-993): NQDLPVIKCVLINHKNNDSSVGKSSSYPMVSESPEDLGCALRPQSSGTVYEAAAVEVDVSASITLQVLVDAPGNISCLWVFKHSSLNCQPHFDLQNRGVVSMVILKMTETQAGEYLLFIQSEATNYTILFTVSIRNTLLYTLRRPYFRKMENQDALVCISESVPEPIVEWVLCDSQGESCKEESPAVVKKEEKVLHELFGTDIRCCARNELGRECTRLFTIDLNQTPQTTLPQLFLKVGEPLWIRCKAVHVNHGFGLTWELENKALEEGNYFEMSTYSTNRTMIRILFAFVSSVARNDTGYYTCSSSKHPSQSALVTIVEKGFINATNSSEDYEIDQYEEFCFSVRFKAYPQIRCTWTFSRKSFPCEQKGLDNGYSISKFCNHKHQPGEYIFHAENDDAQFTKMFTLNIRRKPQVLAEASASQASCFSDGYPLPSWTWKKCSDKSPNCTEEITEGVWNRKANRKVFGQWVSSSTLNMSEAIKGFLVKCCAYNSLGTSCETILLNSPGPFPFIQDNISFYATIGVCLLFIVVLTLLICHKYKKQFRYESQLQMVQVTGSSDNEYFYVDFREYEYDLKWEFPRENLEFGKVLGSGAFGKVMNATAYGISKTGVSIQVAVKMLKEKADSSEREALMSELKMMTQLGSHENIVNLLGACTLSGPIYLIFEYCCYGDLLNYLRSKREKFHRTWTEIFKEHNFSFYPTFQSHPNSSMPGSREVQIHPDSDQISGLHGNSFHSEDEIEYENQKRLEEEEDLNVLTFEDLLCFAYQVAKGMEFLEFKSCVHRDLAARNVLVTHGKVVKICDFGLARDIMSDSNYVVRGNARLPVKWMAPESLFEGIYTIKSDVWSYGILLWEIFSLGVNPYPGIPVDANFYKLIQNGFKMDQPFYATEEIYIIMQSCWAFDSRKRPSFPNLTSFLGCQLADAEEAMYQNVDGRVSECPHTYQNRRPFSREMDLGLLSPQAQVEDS
Recombinant human Aurora B (amino acids 1-344), sequence (Q96GD4 whole entry, the tested form may be a part): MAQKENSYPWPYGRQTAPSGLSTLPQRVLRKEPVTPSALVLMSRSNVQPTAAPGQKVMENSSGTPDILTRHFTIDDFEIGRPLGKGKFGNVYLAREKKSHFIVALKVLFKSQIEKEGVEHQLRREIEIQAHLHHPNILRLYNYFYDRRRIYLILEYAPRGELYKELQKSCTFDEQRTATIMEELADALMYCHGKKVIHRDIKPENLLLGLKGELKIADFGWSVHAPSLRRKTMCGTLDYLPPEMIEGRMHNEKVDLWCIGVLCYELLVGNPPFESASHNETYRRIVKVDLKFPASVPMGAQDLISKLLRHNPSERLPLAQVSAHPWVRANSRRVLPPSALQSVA

SMILES	IC50 [1, 3]	IC50 [2, 4]	IC50 (FLT3; [5])	IC50 ([1]; read-out: IC50 in μM (SYK-Inhibition))	IC50 ([2]; read-out: IC50 in μM (AURB-Inhibition))	IC50 (FLT3; read-out: IC50 in μM (FLT3-Inhibition))	IC50 ([2]; read-out: AURB-inhibition IC50-value)
Cc1ccc(-c2cc3nn(C)cc3c(O[C@H](C)[C@H]3CNC(=O)C3)n2)s1 [Example 54, (4R)-4-[(1R)-1-[2-methyl-6-(5-methyl-2-thienyl)pyrazolo-[4,3-c]pyridin-4-yl]oxyethyl]-pyrrolidin-2-one]	0.0892 µM	> 50 µM	16 µM				
C[C@@H](Oc1nc(-c2cc3nn(C)cc3c(=O)[nH]2)cc2nn(C)cc12)[C@H]1CNC(=O)C1 [Example 13, 2-Methyl-6-[2-methyl-4-[(1R)-1-[(3R)-5-oxopyrrolidin-3-yl]ethoxy]pyrazolo[4,3-c]pyridin-6-yl]-5H-pyrazolo[4,3-c]pyridin-4-one]	0.831 µM	> 50 µM	> 50 µM				
C[C@@H](Oc1nc(-c2ccc(N3CCOCC3)nc2)cc2nn(C)cc12)[C@H]1CNC(=O)C1 [Example 66, (4R)-4-[(1R)-1-[2-methyl-6-(6-morpholino-3-pyridyl)-pyrazolo[4,3-c]pyridin-4-yl]oxyethyl]pyrrolidin-2-one]	0.0385 µM	> 50 µM	4.44 µM				
Cc1nn(C)cc1-c1cc2nn(C)cc2c(O[C@H](C)[C@H]2CNC(=O)C2)n1 [Example 68, (4R)-4-[(1R)-1-[6-(1,3-dimethylpyrazol-4-yl)-2-methyl-pyrazolo[4,3-c]pyridin-4-yl]oxyethyl]pyrrolidin-2-one]	0.0652 µM	> 50 µM	22.4 µM				
C[C@@H](Oc1cc(-c2ccc3c(c2)ncn3C)cc2ncccc12)[C@H]1CNC(=O)C1 [94 of WO 2013/014060]				0.001 µM	0.298 µM	0.267 µM	
COc1cc(-c2cc3nn(C)cc3c(O[C@H](C)[C@H]3CNC(=O)C3)n2)ccc1OC1CCOCC1 [Example 73, (4R)-4-[(1R)-1-[6-(3-Methoxy-4-tetrahydropyran-4-yloxy-phenyl)-2-methyl-pyrazolo[4,3-c]pyridin-4-yl]oxyethyl]pyrrolidin-2-one]			4.17 µM				49.1 µM
CC(C)n1cc(-c2cc3nn(C)cc3c(O[C@H](C)[C@H]3CNC(=O)C3)n2)cn1 [Example 65, (4R)-4-[(1R)-1-[6-(1-iso-propylpyrazol-4-yl)-2-methyl-pyrazolo[4,3-c]pyridin-4-yl]-oxyethyl]pyrrolidin-2-one]	0.0211 µM	> 50 µM	14.8 µM				
C[C@@H](Oc1cc(-c2cnn(C3CCOCC3)c2)cc2nn(C)cc12)[C@H]1CNC(=O)C1 [Example 47, (4R)-4-[(1R)-1-[2-methyl-6-(1-tetrahydropyran-4-ylpyrazol-4-yl)indazol-4-yl]oxyethyl]pyrrolidin-2-one]	0.0067 µM	26 µM	4.77 µM				
COCCn1cc(-c2cc3nn(C)cc3c(O[C@H](C)[C@H]3CNC(=O)C3)n2)cn1 [Example 57, (4R)-4-[(1R)-1-[6-[1-(2-methoxyethyl)pyrazol-4-yl]-2-methyl-pyrazolo[4,3-c]pyridin-4-yl]oxyethyl]pyrrolidin-2-one]	0.0901 µM	> 50 µM	32 µM				
CCn1cc(-c2cc3nn(C)cc3c(O[C@H](C)[C@H]3CNC(=O)C3)n2)cn1 [Example 58, (4R)-4-[(1R)-1-[6-(1-ethylpyrazol-4-yl)-2-methyl-pyrazolo[4,3-c]pyridin-4-yl]oxyethyl]pyrrolidin-2-one]	0.0366 µM	> 50 µM	17.1 µM				
C[C@@H](Oc1nc(-c2ccc(C(F)(F)F)cc2)cc2nn(C)cc12)[C@H]1CNC(=O)C1 [Example 60, (4R)-4-[(1R)-1-[2-methyl-6-[4-(trifluoromethyl)phenyl]-pyrazolo[4,3-c]pyridin-4-yl]-oxyethyl]pyrrolidin-2-one]	0.145 µM	34.7 µM	9.75 µM				
C[C@@H](Oc1nc(-c2cnn(CCC(F)(F)F)c2)cc2nn(C)cc12)[C@H]1CNC(=O)C1 [Example 76, (4R)-4-[(1R)-1-[2-methyl-6-[1-(3,3,3-trifluoropropyl)-pyrazol-4-yl]pyrazolo[4,3-c]pyridin-4-yl]oxyethyl]-pyrrolidin-2-one]	0.0583 µM	46.2 µM	14.8 µM				
Cc1c(-c2cc3nn(C)cc3c(O[C@H](C)[C@H]3CNC(=O)C3)n2)cnn1C [Example 69, (4R)-4-[(1R)-1-[6-(1,5-dimethylpyrazol-4-yl)-2-methyl-pyrazolo[4,3-c]pyridin-4-yl]oxyethyl]pyrrolidin-2-one]	0.197 µM	> 50 µM	45.1 µM				
C[C@@H](Oc1cc(-c2ccn(C)n2)cc2nn(C)cc12)[C@H]1CNC(=O)C1 [Example 14, (4R)-4-[(1R)-1-[2-methyl-6-(1-methylpyrazol-3-yl)indazol-4-yl]oxyethyl]-pyrrolidin-2-one]	0.0421 µM		40.8 µM				
C[C@@H](Oc1nc(-c2ccc3c(c2)CN(C)CC3)cc2nn(C)cc12)[C@H]1CNC(=O)C1 [Example 75, (4R)-4-[(1R)-1-[2-methyl-6-(2-methyl-3,4-dihydro-1H-isoquinolin-7-yl)pyrazolo[4,3-c]pyridin-4-yl]oxyethyl]-pyrrolidin-2-one]	0.0998 µM	8.54 µM	1.59 µM				
C[C@@H](Oc1nc(-c2cnn(C3CCCCC3)c2)cc2nn(C)cc12)[C@H]1CNC(=O)C1 [Example 7, (R)-4-((R)-1-(6-(1-cyclohexyl-1H-pyrazol-4-yl)-2-methyl-2H-pyrazolo[4,3-c]pyridin-4-yloxy)ethyl)pyrrolidin-2-one]	0.0147 µM	37.3 µM	5.77 µM				
C[C@@H](Oc1nc(-c2cnn([C@H]3CC[C@H](N4CCN(C)C(=O)C4)CC3)c2)cc2nn(C)cc12)[C@H]1CNC(=O)C1 [Example 12, 1-methyl-4-[4-[4-[2-methyl-4-[(1R)-1-[(3R)-5-oxopyrrolidin-3-yl]ethoxy]pyrazolo[4,3-c]pyridin-6-yl]pyrazol-1-yl]-cyclohexyl]piperazin-2-one]	0.0123 µM	34.1 µM	8.33 µM				
C[C@@H](Oc1nc(-c2cnn(C3CCCCO3)c2)cc2nn(C)cc12)[C@H]1CNC(=O)C1 (some centres unmarked) [Example 3]	0.0466 µM	> 50 µM	17.4 µM				
C[C@@H](Oc1nc(-c2cnn(C3CCOCC3)c2)cc2nn(C)cc12)[C@H]1CNC(=O)C1 [Example 64, (4R)-4-[(1R)-1-[2-methyl-6-(1-tetrahydropyran-4-yl-pyrazol-4-yl)pyrazolo[4,3-c]pyridin-4-yl]oxyethyl]-pyrrolidin-2-one]	0.0258 µM	> 50 µM	21.6 µM				
C[C@@H](Oc1nc(-c2cnn(C)c2)cc2nn(C)cc12)[C@H]1CNC(=O)C1 [Example 63, (4R)-4-[(1R)-1-[2-methyl-6-(1-methylpyrazol-4-yl)pyrazolo[4,3-c]pyridin-4-yl]oxyethyl]pyrrolidin-2-one]	0.0473 µM	> 50 µM	13.2 µM				
C[C@@H](Oc1cc(-c2cnn(CCC(F)(F)F)c2)cc2nn(C)cc12)[C@H]1CNC(=O)C1 [Example 15, (4R)-4-[(1R)-1-[2-Methyl-6-[1-(3,3,3-trifluoropropyl)pyrazol-4-yl]indazol-4-yl]oxyethyl]pyrrolidin-2-one]	0.0187 µM	33.4 µM	10.1 µM				
C[C@@H](Oc1nc(-c2cnn(C3CCN(C)CC3)c2)cc2nn(C)cc12)[C@H]1CNC(=O)C1 [Example 82, (4R)-4-[(1R)-1-[2-Methyl-6-[1-(1-methyl-4-piperidyl)pyrazol-4-yl]pyrazolo [4,3-c]pyridin-4-yl]oxyethyl]pyrrolidin-2-one]		> 50 µM	7.78 µM				
COc1ccc2[nH]cc(-c3cc4nn(C)cc4c(O[C@H](C)[C@H]4CNC(=O)C4)n3)c2c1 [Example 53, (4R)-4-[(1R)-1-[6-(5-methoxy-1H-indol-3-yl)-2-methyl-pyrazolo[4,3-c]pyridin-4-yl]oxyethyl]pyrrolidin-2-one]		> 50 µM	34.1 µM				
